Reference: patent publication US9359371B2, “Bicyclic substituted pyrimidine compounds” (Xuanzhu Pharma Co., Ltd., priority 2012, dated 2016)
Like-named read-outs stand apart in the source and are kept apart here.

How the values were obtained:
[1] = tested on: length of New Zealand rabbit's penis; test: Pharmacological activity in vivo (oral administration, 100 mg/kg), rabbit penis length; set-up: species or system New Zealand rabbits; conditions: Table 7; oral 100 mg/kg; 0-240 min
From the text: Experiment 6: Assay of Pharmacological Activity In Vivo (Oral Administration)
After accommodating with the environment, the New Zealand rabbits were grabbed everyday. When the rabbits were accustomed to the repeated grabbing, drug administration was began. The animals were randomly divided into groups by weight, with 6 rabbits of each group. The test compounds were separately dissolved in menstruum. […] The corresponding test compounds were orally administrated to animals of each group. The dosage was 100 mg/kg, and the administration volume was 1 mL/kg. The length of the rabbit's penis was measured with a digital caliper before and 5, 10, 15, 30, 50, 60, 90, 120, 180 and 240 min after the administration. Touch of the rabbit's penis by the caliper was avoided during the measurements.

PDE-6 = conditions: cited from earlier work
PDE-11 = PDE-11 (Homo sapiens (Human), UniProt Q9HCR9); conditions: cited from earlier work
[2] = tested on: length of New Zealand rabbit's penis; test: Pharmacological activity in vivo (intravenous injection), rabbit penis length; set-up: species or system New Zealand rabbits; conditions: iv 10 mg/kg, sodium nitroprussiate 0.2 mg/kg iv 5 min after, 0-120 min
Method: Experiment 5: Assay of Pharmacological Activity In Vivo (Intravenous Injection)
After accommodating with the environment, the New Zealand rabbits were grabbed everyday. When the rabbits were accustomed to the repeated grabbing, drug administration was began. The animals were randomly divided into groups by weight. The test compounds were separately dissolved in menstruum. […] The corresponding test compounds were injected into the auricular veins of animals of each group. The dosage of the compounds in Table 5 was 10 mg/kg, and the administration volume was 1 mL/kg. The dosage of the compounds in Table 6 was 10 mg/kg, and the administration volume was 2 mL/kg. 0.2 mg/kg sodium nitroprussiate was intravenously injected into the rabbits 5 min after the administration of the test compounds, with the administration volume of 0.5 mL/kg.
The length of the rabbit's penis was measured with a digital caliper before and 10, 15, 30, 50, 60, 90 and 120 min after the administration. Touch of the rabbit's penis by the caliper was avoided during the measurements.

hERG channel = hERG channel (Homo sapiens (Human), UniProt Q12809); test: hERG potassium channel whole-cell patch clamp on CHO-K1 cell line
From the text: Experiment 8: Detection of Inhibitory Effect of the Compounds of the Present Invention on hERG Potassium Channel by the Patch Clamp Method
Rapidly activated human delayed rectifying outward potassium current (IKr) is mainly mediated by hERG ion channel and is involved in repolarization of human cardiac muscle cell. Clinically, blocking of the current by a drug is the main cause of QT interval prolongation syndrome, acute arrhythmia and even sudden death. The main purpose of the experiment is to test the blocking effect of the compounds of the present invention on hERG channel, and to determine the half maximal inhibitory concentration (IC50) of the compounds.
The experiment mainly included: (1) recording hERG current by patch clamp technique on CHO-K1 cell line which stably expressed hERG channel; (2) calculating the Inhibition rate of each concentration according to hERG tail current; (3) testing each compound at 5 concentrations to calculate IC50; (4) testing 2 cells at each concentration; (5) a positive control.
The structures and synthesis of Compound 88 (WO-88) and Compound 93 (WO-93) as disclosed in WO200119802A were described in Example 55 and Example 56.
Drug for positive control: Amitriptyline hydrochloride (Sigma-Aldrich, an international standard blocker for hERG channel)
Pippette Solution (in mM): KCl 120, KOH 31.25, CaCl2 5.374, MgCl2 1.75, Ethylene glycol-bis(β-aminoethyl ether)-N,N,N′,N′-tetraacetic acid (EGTA) 10, HEPES 10, Na2-ATP 4, adjusted to a pH of 7.2 with 1N potassium hydroxide; adjusted to an osmotic pressure of 280-290 mOsm; preserved at −20° C. after filtration.
Preparation of compounds: Some of the compounds of the present invention and Amitriptyline hydrochloride as the positive control drug were separately dissolved in 100% DMSO (Merck, 61850125001730), then prepared into stock solutions of 30 mM. Before the experiment, the above stock solutions were diluted with DMSO to a concentration of 1000-fold of the experimental concentration. Then the diluted solutions were further diluted with extracellular solution by 1:1000 to the required experimental concentration. The final concentration of DMSO in the extracellular solution was kept as 0.1%.
Stable cell line CHO-hERG was purchased from AVIVA Company. The hERG current on the cell line was recorded. For the purpose of quality control, the smallest seal resistance was no less than 500 MΩ, and the hERG current was no less than 0.4 nA.
The hERG current was recorded by a whole-cell patch clamp technique. Cell suspension was added into a 35-mm culture dish. The culture dish was placed on the objective table of an inverted microscope. Upon cell attachment, perfusion was conducted with the extracellular solution at a flow rate of 1-2 mL/min.
Glass microelectrode with the pipette tip resistance of 2-5 MΩ was controlled by a microelectrode puller via a two-step process. After the whole-cell record was set up, the clamp potential was kept at −80 mV. The cell was depolarized to +60 mV by applying a voltage stimulus, and then repolarized to −50 mV to obtain the hERG tail current. Recordation was conducted after the current was stable. The extracellular perfusion was started from the lowest concentration, with 5-10 min for each concentration until the current was stable, and then conducted with the next concentration.
Stimulus payment and signal collection were performed by A/D-D/A conversion using Digidata 1440 (Molecular Devices) and pCLAMP software (Version 10.2, Molecular Devices). Signal amplification was performed on a patch clamp amplifier (Multiclamp 700B, Molecular Devices), with a filter of 1 KHz. Further data analysis and curve fitting were conducted by Clampfit (version 10.2, Molecular Devices) and Prism. The data were presented as mean value±standard deviation.
In the process of data analysis, the peak value and the baseline of the tail current were corrected when determining the blocking effect on hERG.

[3] = in human; cited from earlier work
[4] = Pharmacokinetics (PK) in SD rats; assay type: in vivo; conditions: rat; for bioavailability: read-out: F % (absolute bioavailability)
bovine retinal PDE-6 = bovine retinal PDE-6 (Bos taurus (Bovine), UniProt P11541+P23439); test: PDE-6 enzyme assay, [3H]cGMP; assay type: biochemical
Method: Experiment 3: Measurement of Enzyme Activity on PDE-6 Enzyme In Vitro
Source of enzyme: PDE-6, bovine retinal PDE-6
Method: The test compound or solvent was incubated at 25° C. for 15 min with enzyme solution (0.2 μg/mL) in Tris-HCl buffer of pH 7.5. 100 μM cGMP and 0.03 μM [^3H] cGMP were then added to activate the reaction. The mixture was incubated for 20 min. The reaction was stopped at 100° C. By addition of snake venom nucleotidase, the product [^3H] GMP was converted into [^3H] Guanosine, which was separated with AG1-X2 resin. The amount of [^3H] Guanosine was measured.

[5] = tested on: length of New Zealand rabbit's penis; test: Pharmacological activity in vivo (oral administration, 70 mg/kg, with SNP), rabbit penis length; set-up: species or system New Zealand rabbits; conditions: Table 8; oral 70 mg/kg; SNP 0.2 mg/kg iv 60 min after; 0-180 min
Method: Experiment 7: Assay of Pharmacological Activity In Vivo (Oral Administration)
After accommodating with the environment, the New Zealand rabbits were grabbed everyday. When the rabbits were accustomed to the repeated grabbing, drug administration was began. The animals were randomly divided into groups by weight, with 6 rabbits of each group. […] The corresponding test compounds were orally administrated to animals of each group. The dosage was 70 mg/kg, and the administration volume was 1 mL/kg. SNP (0.2 mg/kg, 0.5 mL/kg) was injected into the auricular veins of rabbits 60 min after the administration of the test compounds. The length of the rabbit's penis was measured with a digital caliper before and 10, 15, 30, 50, 60, 65, 70, 75, 90, 110, 120 and 180 min after the administration. Touch of the rabbit's penis by the caliper was avoided during the measurements.

[6] = target: PDE-5 enzyme (human blood platelets) (Homo sapiens (Human), UniProt O76074); test: PDE-5 enzyme assay, [3H]cGMP; assay type: biochemical
[7] = SD, plasma, po, intragastric administration, 2 mg/kg

bovine retinal PDE-6, sequence (P11541 whole entry, looked up): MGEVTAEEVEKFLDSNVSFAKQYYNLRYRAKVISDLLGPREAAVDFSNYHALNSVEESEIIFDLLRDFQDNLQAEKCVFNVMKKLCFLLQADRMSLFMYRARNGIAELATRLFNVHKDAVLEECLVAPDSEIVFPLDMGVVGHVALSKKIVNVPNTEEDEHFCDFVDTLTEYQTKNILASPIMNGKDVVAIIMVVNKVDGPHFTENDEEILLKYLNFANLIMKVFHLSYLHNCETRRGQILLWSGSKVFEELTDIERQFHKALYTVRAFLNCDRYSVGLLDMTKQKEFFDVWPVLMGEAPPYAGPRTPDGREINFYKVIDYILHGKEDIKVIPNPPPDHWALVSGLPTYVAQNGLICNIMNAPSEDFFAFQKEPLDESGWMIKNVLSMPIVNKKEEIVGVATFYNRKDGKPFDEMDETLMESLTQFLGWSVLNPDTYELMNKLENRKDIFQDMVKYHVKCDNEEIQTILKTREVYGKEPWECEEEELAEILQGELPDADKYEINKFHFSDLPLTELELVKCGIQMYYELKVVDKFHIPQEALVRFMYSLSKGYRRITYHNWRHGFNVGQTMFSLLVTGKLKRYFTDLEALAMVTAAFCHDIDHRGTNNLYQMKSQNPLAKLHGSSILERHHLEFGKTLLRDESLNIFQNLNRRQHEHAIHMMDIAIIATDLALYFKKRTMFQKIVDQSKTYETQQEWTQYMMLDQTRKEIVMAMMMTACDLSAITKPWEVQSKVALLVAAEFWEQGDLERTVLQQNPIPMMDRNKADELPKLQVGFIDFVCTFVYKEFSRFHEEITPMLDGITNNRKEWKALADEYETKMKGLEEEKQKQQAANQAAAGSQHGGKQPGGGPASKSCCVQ
bovine retinal PDE-6, sequence (P23439 whole entry, looked up): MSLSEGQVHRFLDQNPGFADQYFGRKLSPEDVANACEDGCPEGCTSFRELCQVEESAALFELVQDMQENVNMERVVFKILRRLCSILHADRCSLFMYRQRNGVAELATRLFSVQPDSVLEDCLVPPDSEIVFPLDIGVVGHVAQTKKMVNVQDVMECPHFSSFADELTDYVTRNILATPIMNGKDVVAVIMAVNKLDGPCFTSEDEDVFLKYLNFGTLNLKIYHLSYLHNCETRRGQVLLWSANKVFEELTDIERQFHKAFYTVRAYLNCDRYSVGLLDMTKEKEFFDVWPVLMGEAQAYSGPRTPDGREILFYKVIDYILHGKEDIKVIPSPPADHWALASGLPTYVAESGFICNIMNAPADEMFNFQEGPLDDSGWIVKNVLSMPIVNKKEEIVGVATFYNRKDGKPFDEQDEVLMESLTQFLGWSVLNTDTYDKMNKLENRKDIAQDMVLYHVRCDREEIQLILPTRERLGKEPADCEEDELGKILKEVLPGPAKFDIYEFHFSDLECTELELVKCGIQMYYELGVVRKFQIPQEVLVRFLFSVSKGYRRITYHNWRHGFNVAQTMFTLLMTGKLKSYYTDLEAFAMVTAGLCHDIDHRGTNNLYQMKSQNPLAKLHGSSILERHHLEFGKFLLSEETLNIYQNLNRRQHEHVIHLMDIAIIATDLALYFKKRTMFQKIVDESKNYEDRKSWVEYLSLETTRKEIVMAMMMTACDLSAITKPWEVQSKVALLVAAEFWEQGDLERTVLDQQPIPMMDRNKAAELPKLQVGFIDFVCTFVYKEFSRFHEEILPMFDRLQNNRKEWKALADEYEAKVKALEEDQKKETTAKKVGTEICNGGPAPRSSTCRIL
hERG channel, sequence (Q12809 whole entry): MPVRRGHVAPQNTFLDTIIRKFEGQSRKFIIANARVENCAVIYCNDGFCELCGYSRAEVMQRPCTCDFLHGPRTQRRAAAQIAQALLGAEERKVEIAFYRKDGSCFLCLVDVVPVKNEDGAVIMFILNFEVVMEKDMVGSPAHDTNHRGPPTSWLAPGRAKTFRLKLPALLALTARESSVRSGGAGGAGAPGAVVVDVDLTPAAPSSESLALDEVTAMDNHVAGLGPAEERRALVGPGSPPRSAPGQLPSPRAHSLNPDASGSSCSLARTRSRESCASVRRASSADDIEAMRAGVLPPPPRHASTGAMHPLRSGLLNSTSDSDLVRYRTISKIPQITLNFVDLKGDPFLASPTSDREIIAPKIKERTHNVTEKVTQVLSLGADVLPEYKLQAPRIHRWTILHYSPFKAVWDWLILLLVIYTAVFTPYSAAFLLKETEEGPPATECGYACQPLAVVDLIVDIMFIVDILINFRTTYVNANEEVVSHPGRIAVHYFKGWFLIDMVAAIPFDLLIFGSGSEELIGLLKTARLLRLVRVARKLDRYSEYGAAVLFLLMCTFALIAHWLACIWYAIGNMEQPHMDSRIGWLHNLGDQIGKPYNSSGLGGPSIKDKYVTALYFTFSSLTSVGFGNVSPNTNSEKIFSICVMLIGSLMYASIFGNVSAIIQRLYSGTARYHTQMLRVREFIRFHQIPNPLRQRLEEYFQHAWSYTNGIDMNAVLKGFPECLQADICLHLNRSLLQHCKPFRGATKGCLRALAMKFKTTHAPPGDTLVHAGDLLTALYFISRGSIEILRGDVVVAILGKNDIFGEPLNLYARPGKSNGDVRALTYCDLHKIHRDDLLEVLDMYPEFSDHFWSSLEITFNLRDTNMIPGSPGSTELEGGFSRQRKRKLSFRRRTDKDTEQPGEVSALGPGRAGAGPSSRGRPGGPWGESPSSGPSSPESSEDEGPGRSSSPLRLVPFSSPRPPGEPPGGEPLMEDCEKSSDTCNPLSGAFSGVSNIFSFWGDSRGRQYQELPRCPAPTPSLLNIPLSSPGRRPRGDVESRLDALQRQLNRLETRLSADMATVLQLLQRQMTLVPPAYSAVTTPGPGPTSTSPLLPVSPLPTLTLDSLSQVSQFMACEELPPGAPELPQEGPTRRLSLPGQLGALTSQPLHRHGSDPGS
PDE-11, sequence (Q9HCR9 whole entry): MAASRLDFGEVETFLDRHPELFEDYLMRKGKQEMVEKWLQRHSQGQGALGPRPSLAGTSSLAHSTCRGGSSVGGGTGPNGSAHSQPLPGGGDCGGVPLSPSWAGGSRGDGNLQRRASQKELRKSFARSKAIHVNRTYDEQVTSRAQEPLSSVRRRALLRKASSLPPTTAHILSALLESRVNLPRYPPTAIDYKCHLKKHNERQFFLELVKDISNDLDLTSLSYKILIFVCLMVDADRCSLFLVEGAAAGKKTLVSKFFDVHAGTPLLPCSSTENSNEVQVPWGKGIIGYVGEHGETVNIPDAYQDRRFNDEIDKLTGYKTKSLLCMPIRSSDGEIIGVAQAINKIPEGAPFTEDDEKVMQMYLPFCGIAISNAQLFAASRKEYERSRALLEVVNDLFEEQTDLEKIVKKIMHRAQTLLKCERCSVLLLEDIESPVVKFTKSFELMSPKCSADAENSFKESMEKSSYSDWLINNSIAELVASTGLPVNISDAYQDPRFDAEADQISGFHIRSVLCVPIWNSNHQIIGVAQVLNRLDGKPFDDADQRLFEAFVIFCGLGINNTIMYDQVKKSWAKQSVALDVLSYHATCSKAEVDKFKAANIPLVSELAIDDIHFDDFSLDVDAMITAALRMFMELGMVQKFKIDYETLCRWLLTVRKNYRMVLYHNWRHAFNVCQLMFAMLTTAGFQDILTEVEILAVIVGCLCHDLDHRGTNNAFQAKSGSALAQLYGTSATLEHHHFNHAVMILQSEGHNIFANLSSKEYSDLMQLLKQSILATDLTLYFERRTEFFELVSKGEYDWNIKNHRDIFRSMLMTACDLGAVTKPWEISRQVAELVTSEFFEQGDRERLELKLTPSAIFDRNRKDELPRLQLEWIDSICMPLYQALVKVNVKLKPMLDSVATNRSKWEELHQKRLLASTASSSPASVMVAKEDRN

In the case of `COc1ccc(CN=c2[nH]c(N3CCC[C@H]3CO)ncc2C(=O)NCc2ncccn2)cc1Cl` [Avanafil, reference compound], the “AUC of penis length” value [1] is given as 199.4 mm × min, the “ratio PDE-6/5” value (PDE-6) is given as “about 120” and the “inhibitory effect on PDE-11” value (PDE-11) is given as “no inhibitory effect on PDE-11”. The “AUC of penis length” value ([2]; Table 5, 1 mL/kg) was 317.9 mm × min, the “AUC of penis length” value ([2]; Table 6, 2 mL/kg) was 421.2 mm × min and the IC50 (hERG channel) was 14600 nM. The half-life [3] was “about 1.2 h”, the AUC(0-inf) [4, 7] was 50 ng·h/mL and the Cmax [4, 7] was 18 ng/mL. For the same molecule, the Tmax [4, 7] was 0.33 h, the bioavailability [4, 7] was 4.5% and the AUC(0-inf) ([4]; SD, plasma, intravenous injection, 2 mg/kg) was 382 ng·h/mL. For the same molecule, the Cl_obs ([4]; intravenous injection, 2 mg/kg) was 88.5 mL/min/kg and the Vss_obs ([4]; intravenous injection, 2 mg/kg) was 3.56 L/kg.

With `COc1ccc(CNc2nc(N3CCC4(CC4)C3)ncc2C(=O)N[C@H]2CC[C@H](O)CC2)cc1Cl` [Compound 38, 4-((3-chloro-4-methoxybenzyl)amino)-N-(trans-4-hydroxycyclohexyl)-2-(5-azaspiro[2.4]heptan-5-yl)pyrimidine-5-formamide] the “AUC of penis length” value [1] was 802.7 mm × min, the IC50 (bovine retinal PDE-6; Table 3, read-out: IC50 on PDE-6) was 58 nM and the IC50 (bovine retinal PDE-6; Table 4-1, read-out: PDE-6 (IC50 nM)) was 58 nM. For the same molecule, the “AUC of penis length” value [5] was 654.0 mm × min, the “AUC of penis length” value ([2]; Table 6, 2 mL/kg) was 772.8 mm × min and the IC50 ([6]; Table 2, human blood platelet enzyme, read-out: IC50 on PDE-5) was 0.8 nM. For the same molecule, the IC50 ([6]; Table 4-1, read-out: PDE-5 (IC50 nM)) was 0.8 nM, the half-life [4, 7] was 2.11 h and the bioavailability [4, 7] was 35%. It also gave a half-life ([4]; SD, plasma, intravenous injection, 1 mg/kg) of 3.5 h, a Cl_obs ([4]; intravenous injection, 1 mg/kg) of 16.8 mL/min/kg and a Vss_obs ([4]; intravenous injection, 1 mg/kg) of 4.47 L/kg.
